# Patent US11236055B2 (Venenum Biodesign, LLC, priority 2016, dated 2022)
# pEC50: −log10 of the molar value.
# Key:
# human TGR5 receptor = biological target: T1, human TGR5 receptor (Homo sapiens, UniProt Q8TDU6); experiment: Human TGR5 cAMP production assay; type: cell-based; settings: human TGR5, luminescent cAMP assay; coded A-D; read-out: Human TGR5 Lum. cAMP Activity (EC50)
# T1 construct: host or cells: CHO-K1 (hTGR5-CHO cells)
# T1 sequence (Q8TDU6 1-330): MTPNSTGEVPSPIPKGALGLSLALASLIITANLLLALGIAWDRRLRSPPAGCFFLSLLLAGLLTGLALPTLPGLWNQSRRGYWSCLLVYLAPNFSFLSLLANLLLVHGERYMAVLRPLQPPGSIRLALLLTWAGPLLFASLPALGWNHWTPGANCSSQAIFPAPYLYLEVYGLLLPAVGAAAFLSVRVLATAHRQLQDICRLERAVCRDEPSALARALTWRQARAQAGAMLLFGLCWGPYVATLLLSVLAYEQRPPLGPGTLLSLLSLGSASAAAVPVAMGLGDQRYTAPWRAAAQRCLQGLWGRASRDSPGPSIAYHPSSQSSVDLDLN
# Summary of the method: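 CHO-K1 cells stably expressing human TGR5, with IBMX and cAMP antibody, were exposed to half-log serially diluted compound for 1 h at room temperature. cAMP measured by enzyme-fragment complementation luminescence (XS+ kit) after overnight incubation; EC50 values reported.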
# mouse TGR5 receptor = biological target: T2, mouse TGR5 receptor (Mus musculus, UniProt Q80SS6); experiment: Mouse TGR5 cAMP production assay (HTRF, Cisbio cAMP HiRange); type: cell-based; settings: HEK293-EBNA cells overexpressing mouse TGR5, HTRF cAMP HiRange; coded A-D
# T2 construct: expressed in transfected cells; host or cells: HEK293-EBNA (293 c18, ATCC CRL10852), Hygromycin B selection
# T2 sequence (Q80SS6 1-329): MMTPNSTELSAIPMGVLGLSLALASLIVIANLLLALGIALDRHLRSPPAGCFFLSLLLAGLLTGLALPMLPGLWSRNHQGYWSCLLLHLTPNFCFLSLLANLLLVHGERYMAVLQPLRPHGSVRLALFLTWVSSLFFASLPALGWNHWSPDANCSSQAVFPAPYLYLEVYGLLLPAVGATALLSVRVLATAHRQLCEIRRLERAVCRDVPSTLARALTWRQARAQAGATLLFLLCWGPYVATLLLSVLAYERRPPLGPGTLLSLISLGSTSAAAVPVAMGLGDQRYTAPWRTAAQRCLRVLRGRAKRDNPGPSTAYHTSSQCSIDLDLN
# Summary of the method: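 cAMP read by HTRF competition after 1 h room-temperature compound exposure of mouse TGR5-overexpressing HEK293-EBNA cells. Cells were suspended in serum-free DMEM containing 500 μM IBMX; compounds ran as 12-point half-log dilutions in duplicate; EC50 derived.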
SMILES,pEC50 (human TGR5 receptor),pEC50 (mouse TGR5 receptor)
"CCc1cnccc1-c1cccc(C(C)(C)NS(=O)(=O)c2ccccc2[N+](=O)[O-])c1 [Compound 5AO, N-(2-(3-(3-ethylpyridin-4-yl)phenyl)propan-2-yl)-2-nitrobenzenesulfonamide]",> 7.00,> 7.00
"CC[C@H](NS(=O)(=O)c1cccc(C(F)(F)F)c1)c1cccc(-c2ccncc2C)c1 [Compound 5AY, (S)-N-(1-(3-(3-methylpyridin-4-yl)phenyl)propyl)-3-(trifluoromethyl)benzenesulfonamide]",> 7.00,6.00 to 7.00
"Cc1cnccc1-c1cccc([C@H](C)N(CCOCC(=O)O)S(=O)(=O)c2cccc(Cl)c2C)c1 [Compound 16AM, (S)-2-(2-(3-chloro-2-methyl-N-(1-(3-(3-methylpyridin-4-yl)phenyl)ethyl)phenylsulfonamido)ethoxy)acetic acid]",6.00 to 7.00,6.00 to 7.00
"Cc1cnccc1-c1cccc([C@H](CC(=O)N(C)C)NS(=O)(=O)c2ccccc2C(F)(F)F)c1 [Compound 5BB, (S)-N,N-dimethyl-3-(3-(3-methylpyridin-4-yl)phenyl)-3-(2-(trifluoromethyl)phenylsulfonamido)propanamide]",6.00 to 7.00,6.00 to 7.00
"CC[C@H](NS(=O)(=O)c1ccccc1C(F)(F)F)c1cccc(-c2ccc3nccn3c2)c1 [Compound 5AX, (S)-N-(1-(3-(imidazo[1,2-a]pyridin-6-yl)phenyl)propyl)-2-(trifluoromethyl)benzenesulfonamide]",4.52 to 6.00,4.52 to 6.00
"Cc1cnccc1-c1cccc([C@H](C)NS(=O)(=O)c2ccccc2C(F)(F)F)c1 [Compound 5AR, (S)-N-(1-(3-(3-methylpyridin-4-yl)phenyl)ethyl)-2-(trifluoromethyl)benzenesulfonamide]",> 7.00,6.00 to 7.00
"Cc1cnccc1-c1cccc([C@H](C)N(CCCCC(=O)NCCOCCNC(=O)CS(=O)(=O)O)S(=O)(=O)c2cccc(Cl)c2C)c1 [Compound 31, (S)-15-((3-chloro-2-methylphenyl)sulfonyl)-16-(3-(3-methylpyridin-4-yl)phenyl)-2,10-dioxo-6-oxa-3,9,15-triazaheptadecane-1-sulfonic acid]",> 7.00,> 7.00
"COc1cnccc1-c1cccc(C2CCCN2S(=O)(=O)c2cccc(C(F)(F)F)c2)c1 (centres unmarked) [Compound 40, 3-methoxy-4-(3-(1-((3-(trifluoromethyl)phenyl)sulfonyl)pyrrolidin-2-yl)phenyl)pyridine]",6.00 to 7.00,4.52 to 6.00
"COC(=O)c1cnccc1-c1cccc(C(C)(C)NS(=O)(=O)c2ccccc2C(F)(F)F)c1 [Compound 6, Methyl 4-(3-(2-(2-(trifluoromethyl)phenylsulfonamido)propan-2-yl)phenyl)nicotinate]",> 7.00,4.52 to 6.00
COc1cnccc1-c1cccc(C(C)(C)NS(=O)(=O)c2cc(Cl)ccc2Cl)c1 [Compound 2BE],> 7.00,6.00 to 7.00

# Results, then the molecule that gave them:
pEC50 (human TGR5 receptor),pEC50 (mouse TGR5 receptor),SMILES
6.00 to 7.00,> 7.00,"Cc1cnccc1-c1cccc(C2CN(C(=O)CS(=O)(=O)O)CCN2S(=O)(=O)c2ccccc2C(F)(F)F)c1 (centres unmarked) [Compound 49AG, 2-(3-(3-(3-methylpyridin-4-yl)phenyl)-4-((2-(trifluoromethyl)phenyl)sulfonyl)piperazin-1-yl)-2-oxoethanesulfonic acid]"
6.00 to 7.00,> 7.00,"CCc1cnccc1-c1cccc(C2CN(C(=O)CCC(=O)NCCS(=O)(=O)O)CCN2S(=O)(=O)c2cccc(Cl)c2C)c1 (centres unmarked) [Compound 53AB, 2-(4-(4-((3-chloro-2-methylphenyl)sulfonyl)-3-(3-(3-ethylpyridin-4-yl)phenyl)piperazin-1-yl)-4-oxobutanamido)ethanesulfonic acid]"
> 7.00,6.00 to 7.00,"Cc1cnccc1-c1cccc(C(C)(C)N(CCCNS(=O)(=O)CCNC(=O)NCCCS(=O)(=O)O)S(=O)(=O)c2cccc(Cl)c2C)c1 [Compound 28AE, 3-(3-(2-(N-(3-((3-chloro-2-methyl-N-(2-(3-(3-methylpyridin-4-yl)phenyl)-propan-2-yl)phenyl)sulfonamido)-propyl)sulfamoyl)ethyl)ureido)propane-1-sulfonic acid]"
6.00 to 7.00,6.00 to 7.00,"Cc1cnccc1-c1cccc([C@H](CCCC(=O)O)NS(=O)(=O)c2ccccc2C(F)(F)F)c1 [Compound 19AA, (S)-5-(3-(3-methylpyridin-4-yl)phenyl)-5-(2-(trifluoromethyl)phenylsulfonamido) pentanoic acid]"
6.00 to 7.00,> 7.00,"Cc1cnccc1-c1cccc(C2CN(C(=O)CCC(=O)O)CCN2S(=O)(=O)c2ccccc2C)c1 (centres unmarked) [Compound 46AI, 4-(3-(3-(3-methylpyridin-4-yl)phenyl)-4-(o-tolylsulfonyl)piperazin-1-yl)-4-oxobutanoic acid]"
> 7.00,6.00 to 7.00,Cc1cnccc1-c1cccc([C@H](C)N(CCCC(=O)NCCN)S(=O)(=O)c2ccccc2C(F)(F)F)c1 [Compound 20BX]
> 7.00,6.00 to 7.00,"Cc1cnccc1-c1cccc(C(C)(C)N(CCCNS(=O)(=O)CCN2C(=O)c3ccccc3C2=O)S(=O)(=O)c2cccc(Cl)c2C)c1 [Compound 26A, 3-Chloro-N-(3-((2-(1,3-dioxoisoindolin-2-yl)ethyl)sulfonamido)propyl)-2-methyl-N-(2-(3-(3-methylpyridin-4-yl)phenyl)propan-2-yl)benzenesulfonamide]"
> 7.00,> 7.00,"Cc1cnccc1-c1cccc(C(C)(C)N(CCCNS(=O)(=O)CCNC(=O)NCCS(=O)(=O)O)S(=O)(=O)c2cccc(Cl)c2C)c1 [Compound 28AD, 2-(3-(2-(N-(3-((3-chloro-2-methyl-N-(2-(3-(3-methylpyridin-4-yl)phenyl)propan-2-yl)phenyl)sulfonamido)propyl)sulfamoyl)ethyl)ureido)ethane-1-sulfonic acid]"
6.00 to 7.00,4.52 to 6.00,"Cc1cnsc1-c1cccc([C@H](C)N(CCCC(=O)NCCS(=O)(=O)O)S(=O)(=O)c2cccc(Cl)c2C)c1 [Compound 20BP, (S)-2-(4-(3-chloro-2-methyl-N-(1-(3-(4-methylisothiazol-5-yl)phenyl)ethyl)phenylsulfonamido)butanamido)ethanesulfonic acid]"
> 7.00,6.00 to 7.00,"Cc1cnccc1-c1cccc([C@H](C)N(CCCC(N)=O)S(=O)(=O)c2cccc(Cl)c2C)c1 [Compound 20AY, (S)-4-(3-Chloro-2-methyl-N-(1-(3-(3-methylpyridin-4-yl)phenyl)ethyl)phenylsulfonamido)butanamide]"
> 7.00,> 7.00,"CCc1cnccc1-c1cccc([C@H](C)N(CCCC(=O)NCS(=O)(=O)O)S(=O)(=O)c2cccc(Cl)c2C)c1 [Compound 21AR, (S)-(4-(3-chloro-N-(1-(3-(3-ethylpyridin-4-yl)phenyl)ethyl)-2-methylphenylsulfonamido)butanamido)methanesulfonic acid]"
> 7.00,6.00 to 7.00,"Cc1cnccc1-c1cccc([C@H](C)N(CCCC(=O)N[C@@H](CO)C(=O)O)S(=O)(=O)c2cccc(Cl)c2C)c1 [Compound 21AI, (S)-2-(4-(3-chloro-2-methyl-N-((S)-1-(3-(3-methylpyridin-4-yl)phenyl)ethyl)phenylsulfonamido)butanamido)-3-hydroxypropanoic acid]"
> 7.00,6.00 to 7.00,"Cc1cnccc1-c1cccc([C@H](C)N(CCCCNC(=O)NCCS(=O)(=O)O)S(=O)(=O)c2ccccc2C(F)(F)F)c1 [Compound 28AB, (S)-2-(3-(4-(N-(1-(3-(3-methylpyridin-4-yl)phenyl)ethyl)-2-(trifluoromethyl)phenylsulfonamido)butyl)ureido)ethanesulfonic acid]"
6.00 to 7.00,> 7.00,"Cc1c(Cl)cccc1S(=O)(=O)N1CCN(C(=O)CS(=O)(=O)O)CC1c1cccc(-c2ccncc2Cl)c1 (centres unmarked) [Compound 49AE, 2-(4-((3-chloro-2-methylphenyl)sulfonyl)-3-(3-(3-chloropyridin-4-yl)phenyl)piperazin-1-yl)-2-oxoethanesulfonic acid]"
> 7.00,6.00 to 7.00,"Cc1cnccc1-c1cccc([C@H](C)N(CCCC(=O)NC[C@@H](O)[C@H](O)[C@@H](O)[C@@H](O)CO)S(=O)(=O)c2cccc(Cl)c2C)c1 [Compound 20AK, 4-(3-chloro-2-methyl-N-((S)-1-(3-(3-methylpyridin-4-yl)phenyl)ethyl)phenylsulfonamido)-N-((2R,3S,4S,5S)-2,3,4,5,6-pentahydroxyhexyl)butanamide]"
